Literature values, collected in PMC7350276 (Journal of pharmaceutical and biomedical analysis, 2019).
Read-outs that look alike come from different tables or passages of the source.

Legend:
[1] = male rats, I.V. 4 mg/kg
μ-opioid receptors [2] = system: μ-opioid receptors
rabbits [3] = settings: subcutaneous 15–20 mg/kg, co-injected with 0.2 mg/kg adrenaline
rabbits [4] = settings: intravenously at doses higher than 10 mg/kg
μ-opioid receptors [5] = settings: reversal of morphine-induced inhibition of twitch of the Guinea pig ileum
[6] = I.V. 5 mg/kg, mean ± R.S.D.

Molecule: CC[C@@H]1CN2CC[C@@]3(O)C(=Nc4cccc(OC)c43)[C@@H]2C[C@@H]1/C(=C\OC)C(=O)OC [7HMG, 7-hydroxymitragynine]
- MRT [1]: 1.18 ± 0.167 h
- Functional activity at μ-opioid receptors (μ-opioid receptors [2]; no reference given): potent μ-opioid agonist

Molecule: corynantheidine
- Effect on adrenaline-induced mydriasis (rabbits [3]): prevented adrenaline-induced mydriasis
- Effect on hypertensive effects of adrenaline (rabbits [4]): almost fully blocked
- Functional activity at μ-opioid receptors (μ-opioid receptors [5]): antagonist

Molecule: mitragynine [MG]
- MRT [6]: 137 ± 18
- Functional activity at μ-opioid receptors (μ-opioid receptors [2]): partial agonist
